From patent US20240207422A1, “NERVE TARGETING PEPTIDE CONJUGATES AND METHODS OF USE” (Alume Biosciences, Inc., priority 2022, published 2024) come the findings set out here.

This test has as its system excised human nerve tissue. In words: Phage display selection on excised human nerve tissue (Nerve2, Nerve3), NextGen sequence counts. Format: binding. The conditions noted are these: unique sequence count (relative enrichment). The procedure:
Several m13 phage libraries were constructed expressing randomized variants of a parent peptide (QVPWEEPYYVVKKS-SGGL; SEQ ID NO: 576). In particular, the first 14 amino acids of the parent peptide were randomized using degenerate oligonucleotide synthesis to obtain a diverse set of peptides with a mutation rate of about 50% per residue.
To accomplish this, synthesis was carried out by the XXK codon design approach, where X is any base and K is G or T. To bias synthesis towards the parent sequence, synthesis was carried out at each X position with a mixture of about 70%-85% of the parent nucleotide and 15-30% of the remaining 3 nucleotides. The resulting molecules were inserted into fADL-1e (Antibody Design Laboratories), which is a type 3 phage display vector having a cloning site on the N-terminal side of the full-length gene III protein. The fusion proteins are directed to the periplasm by the PelB leader peptide, which is inserted in the vector […].
Collectively, the phage display libraries used in the screens comprised about 600 million peptides, with sequencing analysis confirming a mutation rate of about 50% per residue.
Phage libraries were independently processed, as follows, with five biological samples: two independent samples of excised human nerve tissue, one sample of a human nerve extract, and two independent samples of human muscle tissue, as follows:
Excised Human Nerve Tissue: For each of the two independent samples, phage were processed through multiple cycles of selection, with representative phage being isolated and sequenced after each selection cycle. Specifically, for selection using human nerve tissue, a sample of […] tissue (2 mm by 2 mm) was washed prior to mixing and incubation with a phage library. After incubation, the mixture (containing mostly intact nerves with phage particles that had variable affinity for nerves) was centrifuged and the nerve pellet washed multiple times with PBS to remove phage with little or no affinity for nerve tissue. The pellet was homogenized and plated for titering and reamplification. Phage that were bound at each round were sequenced. NextGen sequencing of pools after 2, 3 and 4 rounds of selection were used to isolate candidate sequences that were further analyzed using bioinformatics.
NextGen sequencing of pools after 2, 3 and 4 rounds of selection were used to isolate candidate sequences from each of the five samples. These five data sets were then analyzed as described in the next section.
Peptide and vector sequences were translated starting at the first start codon in the nucleotide sequence. […] Trimmed peptides with identical sequences were combined and quantified according to their frequency (count).
Following processing, an R script was written to merge the unique peptide sequences (with counts 6 or greater) from the 5 different data sets to analyze the overlap between nerve and muscle binding activity.
For the single Nerve2, Nerve3, and Plated Nerve2 (pn2) subsets, the number of counts for each group was set at a threshold giving rise to at least 100 peptides. […] As highlighted in yellow in FIG. 1B, the representative group also included 6 unique peptides overlapping between nerve2 and nerve3, 200 unique peptides overlapping between nerve2 and plated nerve2 (at least 60 counts), 4 unique peptides overlapping between nerve3 and plated nerve2. Finally, as highlighted in green in FIG. 1B, the representative group also included […] common to the nerve2, nerve3, and plated nerve2 sets.

Setting [1] is: peptides common to Nerve2, Nerve3 and Plated Nerve 2 sets.
Setting [2] is: peptides overlapping between Nerve2 and Nerve3.
The mark [3] stands for this setting: peptides overlapping between Nerve3 and Plated Nerve 2.
The mark [4] stands for this setting: peptides overlapping between Nerve2 and Plated Nerve2.

For the substance 1 (TIPYAEPYYVVRKY) [compound 1], the Count under setting [1] was determined as 711.

As to 2 (DFTMQEPYYAEKKT) [compound 2], under setting [1], the Count was 593.

The substance 3 (HVTWQEQYYVLKTP) [compound 3] registered a Count under setting [1] of 371.

Substance 4 (HVPGVDPYSVVKKF) [compound 4] had a Count under setting [1] of 368.

In the case of 5 (HVAFEQPDNVLVLY) [compound 5], under setting [1], the Count is listed as 357.

For the substance 6 (QVPTEVQFYLVKEP) [compound 6], the Count under setting [1] was determined as 337.

7 (QLPSEQPCCVVKKY) [compound 7] gave a Count under setting [1] of 329.

In turn, 8 (QDPWVTRYYIVKKS) [compound 8] returned a Count under setting [1] of 304.

The substance 9 (QVPAKEPYNFMKKS) [compound 9] yielded a Count under setting [1] of 299.

In turn, 10 (YLTWEEPEHVNKQS) [compound 10] showed a Count under setting [1] of 272.

As to 11 (QVPRQELYYVSHQF) [compound 11], the Count under setting [1] turned out to be 245.

With 12 (QHPFEQSFYVVNKF) [compound 12], the Count under setting [1] turned out to be 227.

Under setting [1], 13 (DILLDELRFAEKHG) [compound 13] returned a Count of 203.

Under setting [1], 14 (YNLWDAPSYLVKNS) [compound 14] gave a Count of 201.

Under setting [1], 15 (HVAGGERYFSVKES) [compound 15] yielded a Count of 185.

The substance 16 (HLPSDQPLSVTKIS) [compound 16] gave a Count under setting [1] of 173.

As for 17 (GFLGEEPYHFLAKR) [compound 17], under setting [1], the Count is reported as 167.

Take 18 (LRSTADAHYTLKKS) [compound 18]: under setting [1], the Count is recorded as 152.

For the substance 19 (ATPCSQPCAVVPKF) [compound 19], the Count under setting [1] is on record as 142.

20 (QYAWEEPYYLEKKL) [compound 20] gave a Count under setting [1] of 140.

On to 21 (HLPVEYPFYVFKNS) [compound 21], for which the Count under setting [1] was determined as 131.

22 (RGSLEGPFKLGKTH) [compound 22] gave a Count under setting [1] of 130.

For 23 (QVSSQEPNFIVKNN) [compound 23], under setting [1], the Count came to 116.

In the case of 24 (HFSAYEQYYVLRNS) [compound 24], the Count under setting [1] came out at 111.

In turn, 25 (YVIKYAPYYAVTRS) [compound 25] registered a Count under setting [1] of 93.

With 26 (HLPEEELYTIVRKT) [compound 26], the Count under setting [1] was 85.

In turn, 27 (QDPCVWPYNGVKKC) [compound 27] yielded a Count under setting [1] of 79.

Regarding 28 (HVHWDATYYAVTNS) [compound 28], the Count under setting [1] stood at 77.

As for 29 (QFPYDHKNYVVKYS) [compound 29], under setting [1], the Count was 69.

Take 30 (RFHMVGPYNVATTS) [compound 30]: under setting [1], the Count is listed as 68.

With 31 (HLPWEGQLNIGNKS) [compound 31], under setting [2], the Count was determined as 357.

For 32 (DDLWQDLYGVVKKS) [compound 32], the Count under setting [2] is reported as 106.

Under setting [2], 33 (NLAWAESKFLLEKI) [compound 33] came in with a Count of 71.

34 (QLRYQEHYYLGYNS) [compound 34] gave a Count under setting [2] of 56.

Turning to 35 (YVPWQEPYYVQKNL) [compound 35], under setting [2], the Count is 49.

Under setting [2], 36 (LVPWDETHKVVQRH) [compound 36] gave a Count of 14.

In the case of 37 (HVALEQPYYAVKES) [compound 37], the Count under setting [3] amounted to 342.

Under setting [3], 38 (QVQCKEQYYGVTNC) [compound 38] registered a Count of 195.

Take 39 (QALYAEPAYVSKKF) [compound 39]: the Count under setting [3] was found to be 19.

Take 40 (HVSMDERYYVVKKT) [compound 40]: under setting [3], the Count was determined as 17.

The substance 41 (HSYREEPYYFGKRS) [compound 41] showed a Count under setting [4] of 632.

42 (QHTWKEPYNGQKRT) [compound 42]: under setting [4], the Count came out at 577.

Under setting [4], 43 (QLPMGGPYERVNNT) [compound 43] gave a Count of 380.

Take 44 (SVPKVHPYYVVNNS) [compound 44]: the Count under setting [4] was found to be 333.

45 (QVPTGEPLYPVQKT) [compound 45]: the Count under setting [4] is listed as 323.

Regarding 46 (QLPSYQAHDVMKVH) [compound 46], the Count under setting [4] amounted to 308.

In turn, 47 (QIPSQRPSSVGAIA) [compound 47] gave a Count under setting [4] of 292.

The substance 48 (QFPGDERYYLATST) [compound 48] displayed a Count under setting [4] of 283.

In the case of 49 (HVSSQEPYYVLRNS) [compound 49], the Count under setting [4] was determined as 252.

In turn, 50 (RLPSDDHNTFGTRS) [compound 50] returned a Count under setting [4] of 249.

For 51 (QLHGDELLSVVKNP) [compound 51], under setting [4], the Count worked out at 232.

Under setting [4], 52 (ATEWEESYFHVKKF) [compound 52] returned a Count of 223.

In turn, 53 (RVPWEQSSWVVKRS) [compound 53] yielded a Count under setting [4] of 220.

With 54 (QIANKEPHTYVENS) [compound 54], the Count under setting [4] is listed as 213.

For 55 (QIRSEVTHSVVRES) [compound 55], under setting [4], the Count stood at 213.

For the substance 56 (QHTLNHPYSVVKTS) [compound 56], the Count under setting [4] was 205.

57 (QVPSHELYFRPKES) [compound 57] returned a Count under setting [4] of 204.

Under setting [4], 58 (EVPGGVPYYPMKKF) [compound 58] returned a Count of 201.

In turn, 59 (HVSGGQWVHGQKNS) [compound 59] registered a Count under setting [4] of 200.

60 (HVPSKQMNSLAKKS) [compound 60]: under setting [4], the Count came to 196.

Turning to 61 (QIHFGEPNYVVKKS) [compound 61], the Count under setting [4] is recorded as 194.

62 (QFPWEGSYYTAKQS) [compound 62] returned a Count under setting [4] of 193.

Take 63 (QIPWGEAYQAEKIT) [compound 63]: under setting [4], the Count was 191.

Substance 64 (VVPSNAQHLAPNMS) [compound 64] gave a Count under setting [4] of 191.

As to 65 (HVAEAESYNVVKKT) [compound 65], under setting [4], the Count was 187.

On to 66 (QIPCEGPYSGVQMC) [compound 66], for which the Count under setting [4] is on record as 186.

Take 67 (HITGGVPYPVVRDS) [compound 67]: the Count under setting [4] was found to be 185.

As for 68 (HVLWEDSSYHVTHH) [compound 68], under setting [4], the Count turned out to be 179.

Take 69 (HVTYDEQKYFVKKS) [compound 69]: the Count under setting [4] stood at 179.

In the case of 70 (QVPSVQPYYIGKNT) [compound 70], under setting [4], the Count was 175.

Turning to 71 (QARFEQPYSGLRDS) [compound 71], the Count under setting [4] stood at 167.

Under setting [4], 72 (LIPSAYPHSLWSKS) [compound 72] returned a Count of 166.

73 (QLRSNEAYHVVKKS) [compound 73] registered a Count under setting [4] of 166.

The substance 74 (QTQMQEPKYGVSHS) [compound 74] came in with a Count under setting [4] of 163.

75 (DVRWDEPYYVDEKI) [compound 75] returned a Count under setting [4] of 161.

Under setting [4], 76 (HVPRVEPYNVVTNY) [compound 76] displayed a Count of 158.

77 (QFPGQALSFVHEKS) [compound 77]: under setting [4], the Count is 152.

On to 78 (HFPSKALNNTAKNT) [compound 78], for which the Count under setting [4] was 151.

For 79 (QFPPEQPYGLANKS) [compound 79], the Count under setting [4] was determined as 150.

80 (HVPWAGRHYVAKHS) [compound 80] returned a Count under setting [4] of 149.

Under setting [4], 81 (RVAIDELYLIAHKS) [compound 81] displayed a Count of 147.

For 82 (QIPEQQPYNVFKKS) [compound 82], the Count under setting [4] stood at 142.
